What was measured:
Assay type in all cases: ADME, tissue-based
Blood [1] = assay: Retention time in human whole blood in presence of 0.1% formic acid in water at 20 uM by LC-MS/MS method
Blood [2] = assay: Retention time in rat whole blood in presence of 0.1% formic acid in water at 20 uM by LC-MS/MS method
Blood [3] = assay: Retention time in human whole blood in presence of 0.1% formic acid in acetonitrile at 20 uM by LC-MS/MS method
Blood [4] = assay: Retention time in rat whole blood in presence of 0.1% formic acid in acetonitrile at 20 uM by LC-MS/MS method
Blood [5] = assay: Drug metabolism in human whole blood treated with 20 uM RRx-001 assessed as compound formation by LC-MS/MS method
Blood [6] = assay: Drug metabolism in rat whole blood treated with 20 uM RRx-001 assessed as compound formation by LC-MS/MS method

Structure (SMILES) | Retention_time (Blood [1]) [min] | Retention_time (Blood [2]) [min] | Retention_time (Blood [3]) [min] | Retention_time (Blood [4]) [min] | Drug metabolism (Blood [5]) | Drug metabolism (Blood [6])
N[C@@H](CSCC(=O)N1CC([N+](=O)[O-])([N+](=O)[O-])C1)C(=O)NCC(=O)O | 8 | 8 | 6.2 | 6.2 | metabolite_detected | metabolite_detected
N[C@@H](CSCC(=O)N1CC([N+](=O)[O-])C1)C(=O)O | 4.7 | 4.7 | 4.3 | 4.3 | metabolite_detected | metabolite_detected

Source: ChEMBL document CHEMBL3526110, “Preclinical evaluation of the metabolism and disposition of RRx-001, a novel investigative anticancer agent” (Drug Metab Dispos, 2012)
